# From patent EP1481986A1, “Antibiotic 97518, pharmaceutically acceptable salts and compositions, and use thereof” (priority 2003, dated 2004)
# Key:
# [1] = test system: 1652 Enterococcus faecium cl.isol. Van A; assay: Microbroth dilution MIC (NCCLS M7-A5); format: cell-based; set-up: unit not given here; conditions: CAMHB, 10^4 CFU/ml, 35°C, 18-24 hours
# Method: (§1) Antimicrobial activity of antibiotic 97518 was determined by using microbroth dilution method with standard U-bottom 96-well plates according to The National Committee for Clinical Laboratory Standards (Methods for Dilution Antimicrobial Susceptibility Tests for Bacteria that Grow Aerobically - Fifth Edition; Approved Standard. NCCLS document M7-A5 Vol.20 No. 2). The strains used were clinical isolates or strains from American Type Culture Collection (ATCC). Powder of antibiotic 97518 was dissolved in DMSO; this solution was further diluted with distilled water. The media used were cation-adjusted Mueller Hinton broth (CAMHB) for Staphylococcus aureus, Moraxella catarrhalis, Enterococci; Todd Hewitt broth (THB) for Streptococcus pyogenes, Streptococcus pneumoniae. Inocula were 10^4 CFU/ml. All strains were incubated at 35°C in air. Incubation time was 18-24 hours. […]
# [2] = test system: 997 Neisseria gonorrhoeae clin.is.; assay: Microbroth dilution MIC (NCCLS M7-A5); format: cell-based; conditions: 10^4 CFU/ml, 35°C, 18-24 hours
# Method: as §1
# [3] = test system: Streptococcus pyogenes C 203; assay: Mouse septicemia protection test (ip infection, survival to day 7); format: in vivo, Female ICR mice; conditions: mice infected ip with Streptococcus pyogenes C 203, Spearman-Kärber method
# Method: Female ICR mice (Harlan, Italy) weighing 14-16 g were infected intraperitoneally (ip) with 6.5 x 10^2 cells of Streptococcus pyogenes C 203 in 0.5 mL of saline supplemented with 1% peptone. Antibiotic 97518 was administered intravenously (iv) or subcutaneously (sc) within 10-15 min after infection. The 50% effective doses (ED50) were calculated by the Spearman-Kärber method (D.J. Finney. The Spearman-Kärber method. In: Statistical Methods in Biological Assay. (1952) pp. 524-530, Charles Griffin &Co., Ltd., London) from the percentage of animals surviving to day 7 at each dose.
# [4] = test system: Staphylococcus aureus strain ATCC6538P (L100); assay: Macromolecular synthesis (incorporation of labelled precursors of DNA, RNA, protein and cell wall); format: cell-based; conditions: 20 min at 37°C
# Method: Staphylococcus aureus strain ATCC6538P (L100) was grown overnight at 37 °C in a rotary bath in Iso-Sensitest Broth (Oxoid Ltd., Basingstoke, Hampshire, England). The culture was diluted up to an OD540 = 0.03 in a 1:1 (v/v) mixture of Iso-Sensitest broth : Davis Mingioli Broth (Difco Labs, Detroit, USA) added with 1g/l of KH2PO4, and was incubated at 37°C. To determine the antibiotic dose/response effects on RNA, DNA, protein and cell wall biosyntheses, the culture was divided in four parts when the optical density reached 0.4. Individual precursors of DNA ([…] ^3H-thymidine + 0.1g/l unlabelled adenosine), RNA (5 mCi/l ^3H-uracil), protein (10 mCi/l ^3H-leucine), and cell wall (1 mCi/l ^3H-N-acetylglucosamine + 3.5 mg/l unlabelled N-acetylglucosamine) biosyntheses were then added, resptectively, to each one of the four aliquots and, immediately after the addition, 100 µl of the resulting culture was dispensed in wells of microtiter plate (96 wells format), containing 10 µl of solutions of antibiotic 97518. After 20 min of incubation at 37°C, 0.1 ml ice-cold 20% (w/v) trichloroacetic acid was added to stop the incorporation. After 30 minutes at 4°, the samples were filtered on Filtermat A (Wallac) using an 96 well Wallac Cell Harvester. The Radioactivity not incorporated was washed away sequentially with water and ethanol. The radioactivity of the biopolymers was counted on the filters, using a Beta Plate System (Wallac).
# [5] = in vivo
Molecule,MIC [1],MIC [2] [mg/mL],ED50 ([3]; administered intravenously (iv) within 10-15 min after infection) [mg/kg],ED50 ([3]; administered subcutaneously (sc) within 10-15 min after infection) [mg/kg],"other macromolecular syntheses (DNA, RNA, protein) ([4]; at 2.5 µg/ml (same concentrations))",cell wall synthesis (3H-N-acetylglucosamine incorporation) ([4]; at 2.5 µg/ml),not toxic up to (dose) [5],"the four macromolecular syntheses (DNA, RNA, protein, cell wall) ([4]; control experiments)"
C=C1NC(=O)[C@H](C(C)C)NC(=O)[C@H](NC(=O)/C(=C/C)NC(=O)[C@@H](N)[C@@H](C)CC)CSC[C@@H](C(=O)N[C@H]2C(=O)N3CCC[C@H]3C(=O)NCC(=O)N[C@H](C(=O)N[C@H](C(=O)N[C@@H]3CSC[C@@H]4NC(=O)CNC(=O)[C@@H](CSC[C@@H]5NC(=O)[C@H](Cc6c[nH]cn6)NC(=O)[C@@H](CSC[C@@H](C(=O)O)NC5=O)NC4=O)NC(=O)CNC(=O)CNC(=O)CNC(=O)[C@H](CCC(=O)O)NC3=O)[C@@H](C)O)CS[C@H]2C)NC(=O)[C@H](Cc2c[nH]c3ccccc23)NC1=O [Antibiotic 97518],64,64,3.75,3.75,only partially inhibited,blocked cell wall synthesis completely,up to 100 mg/Kg,
nisin [reference compound],,,,,,,,inhibited all the four macromolecular syntheses at the same concentration
